Where “and” joins values, the source holds several entries; their conditions need not be identical. Identical values can stand only once. Entries after “also recorded” stand apart in the source; their conditions may differ.

1 compound from patent US20050256132A1, “Use of ER selective NF-kB inhibitors for the treatment of sepsis” (priority 2003, published 2005) can be followed below.

The subject of one assay is ER/NF-κB. Description: ER/NF-κB luciferase reporter in Ad5-wt-ERα infected HAECT-1 cells (Table 1). Conditions: relative to the maximal inhibition observed with E2. It is filed as cell-based, human. On the procedure: (§1) T-175 flasks of 100% confluent HAECT-1 cells (immortalized human aortic endothelial cells) were washed with 8 mL of HBSS (HEPES buffered saline solution) and infected for four hours with 6 mL of a 1:10 dilution of Ad5-wt-hERα virus (an adenovirus transfection vector that mediates CMV promoter driven expression of human ERα) in phenol red free Endothelial Cell Basal medium (Clonetics, San Diego Calif., Catalog # CC-3129) containing 0.25% bovine serum albumin (EBM-BSA). After four hours, cells were washed with EBM-BSA and incubated overnight in the same medium. Following overnight incubation, cells were washed with EBM-BSA and infected for 2 hours with 6 mL of a 1:10 dilution of Ad5-3x(NF-κB).Luc virus (Adenovirus luciferase expression vector driven by 3 repeats of the MHC NF-κb site 5′ to the thymidine kinase promoter) in EBM-BSA. […]
(§2) ERα infected HAECT-1 cells or control cells were thawed, diluted 42× in warm EBM-BSA, plated into 96-well plates at 0.1 mL/well and incubated for 4 hours at 34° C. […] Luciferase was determined on a Wallac Victor Luminometer (Gaithersburg, Md.) using 10 μL of lysate and mixing with 100 μL of Promega Luciferase Assay reagent. Creatine kinase was determined from the rate of increase in A340 following addition of 100 μL of CK assay reagent (Sigma, cat. No 47-10) to the remainder of the cell lysate. […]
In general terms: In a reporter assay the amount or activity of a reporter protein is the signal.

The subject of a further assay is IL-6. Put plainly: IL-6 expression (ELISA) in Ad5-wt-ERα infected HAECT-1 cells (Table 1). It is filed as cell-based, human. Background: In an ELISA, binding on a coated surface is turned into a signal by an enzyme label.
The test system of a further assay is Creatine Kinase. Description: Creatine kinase expression in Ad5-wt-ERα infected HAECT-1 cells (Table 1). It is filed as cell-based, human. Conditions: relative to the maximal stimulation observed with E2. On the procedure:
as §1, §2

The next assay has as its system NF-κB. Description: IL-1β stimulated NF-κB reporter activity in ERα expressing HAECT-1 cells. It is filed as cell-based, human. Conditions: ERα expressing HAECT-1 cells, FIG. 1A. How it is done:
(§3) HAECT-1 cells (Chadwick C C, et al., Proc Natl Acad Sciences, 2005, 102(7): 2543-2548) were cultured in EGM (GIBCO, Rockville, Md.) containing 10% FBS, 1% GlutaMAX and 0.1% Antimycotic-Antibiotic in Falcon T-175 culture flasks at 34° C. in 5% CO2 and infected for four hours with Ad5-wt-ER virus. After overnight recovery, the cells were infected for 2 hours with the Ad5-3x(NFκB).Luc or Ad5-IL6.Luc virus. Compound 67 and 2 ng/ml IL-1 were added to the cells for 15-20 h and the cell lysate was assayed for luciferase activity and evaluated for CK expression (Stanbio Laboratories, Texas). The values are reported as mean±SEM with n=4 from at least 3 independent experiments.

A further assay concerns ERβ. Put plainly: Reporter activity in HAECT-1 cells expressing ERβ. It is filed as cell-based, human. As to conditions: FIG. 1C. How it is done:
(A) The effect of compound 67 on NF-κB mediated luciferase reporter activity in HAECT-1 cells expressing ERα. […] (C) The effect of compound 67 on the human IL-6 promoter luciferase reporter activity in HAECT-1 cells expressing either ERα (squares) or ERβ (diamonds). (D) The remaining lysate from (A) was used to determine CK activity.
as §3

Assay [1] can be described thus: Cecal ligation and puncture model in mice. It is filed as in vivo, BALBc mice. How it is done: The cecal ligation puncture (“CLP”) procedure was derived from a modification of standard methods previously described (Opal S M, et al., Shock 15(4):285-290, 2001). Female, non-pregnant, specific pathogen-free, Albino BALBc mice (20-25 gm) were used in the experiment. […] Animals were allowed to eat and drink sterile water on an ad libitum basis until 12 h before surgery when food was withheld until after the surgical procedure.
Anesthetized animals (methoxyflurane, Mallinckodt Veterninary Inc., Mundeline, Ill.) had the abdominal skin shaved and a midline, abdominal incision was made. The cecum was exteriorized and distended using intraluminal contents from the colon. The cecum was then ligated below the ileocecal valve and punctured twice using a 23-gauge sterile needle. The cecum was returned to the peritoneal cavity and the transversalis fascia was closed along with the skin incision. The skin incision was covered with topical bacitracin ointment. The animals were given a single […] dose of trovafloxacin (20 mg/kg IM) immediately post-operatively and a 1-mL subcutaneous dose of PBS was given as fluid resuscitation. […] All animals underwent necropsy examination for histological evidence of organ injury, pathology scoring of intestinal mucosa, and quantitative bacteriology.
Differences in survival time between groups were analyzed by Kaplan-Meier survival plots and log-rank testing. Other parameters were measured using a Mann-Whitney U-Test for 2 groups or the Kruskal-Wallis one way analysis of variance for 3 or more groups. A p value of <0.05 was considered significant. All data is presented as mean and standard deviation.

As a reminder, the IC50 is the midpoint of a concentration-inhibition curve. With `COc1ccccc1[C@H](c1cccc2ccccc12)[C@@](C)(C#N)C(=O)N1CCC(c2cccc(C(F)(F)F)c2)CC1` [Example 67, (S,S)-3-(2-methoxyphenyl)-2-methyl-3-(1-naphthyl)-2-({4-[3-(trifluoromethyl)phenyl]piperidin-1-yl}carbonyl)propanenitrile], the “ER/NFκB Efficacy” value with ER/NF-κB is 100% and 86% and 90% and 92%. In addition, the IC50 with IL-6 (Homo sapiens, HAECT1, Ad5-wt-ERα infected HAECT-1 cells, IL-1 stimulated, read-out: Interleukin-6 IC50) stood at 35 nM; in the assay with NF-κB (Homo sapiens, HAECT1), 122 nM. Also, the “Interleukin-6 Efficacy” value with IL-6 (relative to the maximal inhibition observed with E2) came to 45%. Further, in the assay with Creatine Kinase, the “Creatine Kinase Efficacy” value is 41% and 58%. Also, the “efficacy compared with E2, NF-κB reporter” value in the assay on NF-κB is 94%. For the same compound, in the assay on ERβ, the “inhibition of NF-κB transcriptional activity in the presence of ERβ” value was “little inhibition”. Moreover, the “survival vs vehicle control (Kaplan-Meier)” value in assay [1] (50 mg/kg at 0, 24 and 48 hours after CLP, 7 days, FIG. 5) is “significant survival advantage; also recorded: significantly greater than control”. For the same compound, the “histopathologic scores of small bowel intestinal mucosa” value in assay [1] (50 mg/kg, p<0.05 vs vehicle control) is “significant preservation of mucosal integrity”. In addition, the “systemic cytokine release and endotoxin levels” value in assay [1] (50 mg/kg, vs vehicle control, p=ns) is recorded as “did not differ”.
